Results as given in patent US7592364B2, “Substituted gamma lactams as therapeutic agents” (Allergan, Inc., priority 2006, dated 2009).

Experiments:
EP4 receptors = target: T1, EP4 receptors (Homo sapiens, UniProt P35408); test: EP4 radioligand binding (Ki) vs [3H]PGE2; conditions: unit inferred
T1 construct: expressed in transfected cells; host or cells: HEK-293
Method: (§1) Cells Stably Expressing EP1, EP2, EP4 and FP Receptors
(§2) HEK-293 cells stably expressing the human or feline FP receptor, or EP1, EP2, or EP4 receptors were washed with TME buffer, scraped from the bottom of the flasks, and homogenized for 30 sec using a Brinkman PT 10/35 polytron. TME buffer was added to achieve a final 40 ml volume in the centrifuge tubes (the composition of TME is 100 mM TRIS base, 20 mM MgCl2, […]; 10N HCl is added to achieve a pH of 7.4).
(§3) The cell homogenate was centrifuged at 19000 r.p.m. for 20 min at 4° C. using a Beckman Ti-60 rotor. The resultant pellet was resuspended in TME buffer to give a final 1 mg/ml protein concentration, as determined by Biorad assay. Radioligand binding competition assays vs. [^3H-]17-phenyl PGF2α (5 nM) were performed in a […] volume for 60 min. Binding reactions were started by adding plasma membrane fraction. The reaction was terminated by the addition of 4 ml ice-cold TRIS-HCl buffer and rapid filtration through glass fiber GF/B filters using a Brandel cell harvester. The filters were washed 3 times with ice-cold buffer and oven dried for one hour.
(§4) [^3H-] PGE2 (specific activity 180 Ci mmol) was used as the radioligand for EP receptors. [^3H] 17-phenyl PGF2, was employed for FP receptor binding studies. Binding studies employing EP1, EP2, EP4 and FP receptors were performed in duplicate in at least three separate experiments. A 200 μl assay volume was used. Incubations were for 60 min at 25° C. and were terminated by the addition of 4 ml of ice-cold 50 mM TRIS-HCl, followed by rapid filtration through Whatman GF/B filters and three additional 4 ml washes in a cell harvester (Brandel). Competition studies were performed using a final concentration of 5 nM [^3H]-PGE2, or 5 nM [^3H] 17-phenyl PGF2, and non-specific binding determined with 10^−5M of unlabeled PGE2, or 17-phenyl PGF2α, according to receptor subtype studied.

EP2 [1] = target: T2, EP2 (Homo sapiens, UniProt P43116); test: EP2 competition binding (Ki) vs [3H]PGE2; parameters: expressed in transfected cells; host or cells: HEK 293; conditions: HEK 293 cells stably expressing human EP2, [3H]PGE2; unit inferred
Method: Competition binding experiments were performed in a medium containing Hank's balanced salt solution, Hepes 20 mM, pH 7.3, membranes (˜60 μg protein) or 2×10^5 cells from HEK 293 cells stably expressing human EP2 receptors, [^3H]PGE2 (10 nM) and various concentrations of test compounds in a total volume of 300 μl. Reaction mixtures were incubated at 23° C. for 60 min, and were filtered over Whatman GF/B filters under vacuum. Filters were washed three times with 5 ml ice-cold buffer containing 50 mM Tris/HCl (pH 7.3). Non-specific binding was estimated in the presence of excess unlabeled PGE2 (10 μM). Binding data fitted to the binding model for a single class of binding sites, using nonlinear regression analysis. IC50 values thus obtained were converted to Ki using the equation of Ki=(IC50/(1+[L]/KD) where [L] represents PGE2 concentration (10 nM) and KD the dissociation constant for [^3H]PGE2 at human EP2 receptors (40 nM).
as §1, §2, §3, §4

EP2 [2] = target: T2, EP2; test: EP2 cAMP assay; format: cell-based; conditions: unit inferred
hEP2/Gqs5 = target: T3, hEP2/Gqs5 (Homo sapiens, UniProt P43116); test: EP2 FLIPR calcium signal study; format: cell-based; conditions: HEK-293(EBNA) cells expressing hEP2/Gqs5; unit inferred
T3 construct: expressed in transfected cells; host or cells: HEK-293(EBNA)
Method: (§5) Methods for FLIPR™ Studies
(§6) HEK-293(EBNA) cells, stably expressing one type or subtype of recombinant human prostaglandin receptors (prostaglandin receptors expressed: hDP/Gqs5; hEP1; hEP2/Gqs5; hEP3A/Gqi5; hEP4/Gqs5; hFP; hIP; hTP), were cultured in 100 mm culture dishes in high-glucose DMEM medium containing 10% fetal bovine serum, 2 mM 1-glutamine, 250 μg/ml geneticin (G418) and 200 μg/ml hygromycin B as selection markers, and 100 units/ml penicillin G, 100 μg/ml streptomycin and 0.25 μg/ml amphotericin B.
(§7) (b) Calcium Signal Studies on The FLIPR™
(§8) Cells were seeded at a density of 5×10^4 cells per well in Biocoat® Poly-D-lysine-coated black-wall, clear-bottom 96-well plates (Becton-Dickinson) and allowed to attach overnight in an incubator at 37° C. Cells were then washed two times with HBSS-HEPES buffer (Hanks Balanced Salt Solution without bicarbonate and phenol red, 20 mM HEPES, pH 7.4) using a Denley Cellwash plate washer (Labsystems). After 45 minutes of dye-loading in the dark, using the calcium-sensitive dye Fluo-4 […] at a final concentration of 2 μM, plates were washed four times with HBSS-HEPES buffer to remove excess dye leaving 100 μl in each well. Plates were re-equilibrated to 37° C. for a few minutes.
(§9) Cells were excited with an Argon laser at 488 nm, and emission was measured through a 510-570 nm bandwidth emission filter (FLIPR™, Molecular Devices, Sunnyvale, Calif.). Drug solution was added in a 50 μl volume to each well to give the desired final concentration. The peak increase in fluorescence intensity was recorded for each well. On each plate, four wells each served as negative (HBSS-HEPES buffer) and positive controls (standard agonists: BW245C (hDP); PGE2 (hEP1; hEP2/Gqs5; hEP3A/Gqi5; hEP4/Gqs5); PGF2α (hFP); carbacyclin (hIP); U-46619 (hTP), depending on receptor). The peak fluorescence change in each drug-containing well was then expressed relative to the controls.
(§10) Compounds were tested in a high-throughput (HTS) or concentration-response (CoRe) format. In the HTS format, forty-four compounds per plate were examined in duplicates at a concentration of 10^−5 M. To generate concentration-response curves, four compounds per plate were tested in duplicates in a concentration range between 10^−5 and 10^−11 M. The duplicate values were averaged. In either, HTS or CoRe format each compound was tested on at least 3 separate plates using cells from different passages to give an n>3.

hDP/Gqs5 = target: T4, hDP/Gqs5 (Homo sapiens, UniProt Q13258); test: hDP FLIPR calcium signal study; format: cell-based; conditions: HEK-293(EBNA) cells expressing hDP/Gqs5; read-out: Other Receptors (EC50 in nM) hDP
T4 construct: expressed in transfected cells; host or cells: HEK-293(EBNA)
T4 sequence (Q13258 1-359): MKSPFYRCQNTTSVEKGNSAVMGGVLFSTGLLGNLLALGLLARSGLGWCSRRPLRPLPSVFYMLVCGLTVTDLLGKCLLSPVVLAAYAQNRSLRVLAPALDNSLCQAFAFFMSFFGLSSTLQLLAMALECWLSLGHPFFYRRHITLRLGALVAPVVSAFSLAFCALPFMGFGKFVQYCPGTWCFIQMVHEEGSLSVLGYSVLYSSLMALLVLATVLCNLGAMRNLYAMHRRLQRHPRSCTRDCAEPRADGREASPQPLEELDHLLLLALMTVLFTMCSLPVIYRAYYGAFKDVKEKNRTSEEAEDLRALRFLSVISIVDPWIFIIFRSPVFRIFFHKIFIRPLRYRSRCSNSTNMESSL
Method: as §5, §6, §7, §8, §9, §10

hEP3A/Gqi5 = target: T5, hEP3A/Gqi5 (Homo sapiens, UniProt P43115); test: hEP3A FLIPR calcium signal study; format: cell-based; conditions: HEK-293(EBNA) cells expressing hEP3A/Gqi5; read-out: Other Receptors (EC50 in nM) hEP3A
T5 construct: expressed in transfected cells; host or cells: HEK-293(EBNA)
T5 sequence (P43115 1-390): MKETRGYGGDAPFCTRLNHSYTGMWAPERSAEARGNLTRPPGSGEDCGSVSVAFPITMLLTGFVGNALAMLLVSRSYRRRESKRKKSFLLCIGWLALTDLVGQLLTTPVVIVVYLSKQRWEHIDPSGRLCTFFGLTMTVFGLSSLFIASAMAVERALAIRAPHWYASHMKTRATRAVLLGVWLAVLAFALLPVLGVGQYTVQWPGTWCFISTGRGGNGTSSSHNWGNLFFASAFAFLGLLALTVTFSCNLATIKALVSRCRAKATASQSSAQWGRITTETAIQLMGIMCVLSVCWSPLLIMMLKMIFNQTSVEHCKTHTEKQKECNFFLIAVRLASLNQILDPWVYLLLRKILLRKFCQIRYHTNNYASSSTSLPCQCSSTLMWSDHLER
Method: as §5, §6, §7
(§11) Cells were seeded at a density of 5×10^4 cells per well in Biocoat® Poly-D-lysine-coated black-wall, clear-bottom 96-well plates (Becton-Dickinson) and allowed to attach overnight in an incubator at 37° C. Cells were then washed two times with HBSS-HEPES buffer (Hanks Balanced Salt Solution without bicarbonate and phenol red, 20 mM HEPES, pH 7.4) using a Denley Cellwash plate washer (Labsystems). […]
(§12) Cells were excited with an Argon laser at 488 nm, and emission was measured through a 510-570 nm bandwidth emission filter (FLIPR™, Molecular Devices, Sunnyvale, Calif.). […] The peak increase in fluorescence intensity was recorded for each well. […] The peak fluorescence change in each drug-containing well was then expressed relative to the controls. […]

hEP4/Gqs5 = target: T6, hEP4/Gqs5 (Homo sapiens, UniProt P35408); test: EP4 FLIPR calcium signal study; format: cell-based; conditions: HEK-293(EBNA) cells expressing hEP4/Gqs5; unit inferred
T6 construct: expressed in transfected cells; host or cells: HEK-293(EBNA)
Method: as §5, §6, §7, §11, §12

T3 sequence (P43116 whole entry): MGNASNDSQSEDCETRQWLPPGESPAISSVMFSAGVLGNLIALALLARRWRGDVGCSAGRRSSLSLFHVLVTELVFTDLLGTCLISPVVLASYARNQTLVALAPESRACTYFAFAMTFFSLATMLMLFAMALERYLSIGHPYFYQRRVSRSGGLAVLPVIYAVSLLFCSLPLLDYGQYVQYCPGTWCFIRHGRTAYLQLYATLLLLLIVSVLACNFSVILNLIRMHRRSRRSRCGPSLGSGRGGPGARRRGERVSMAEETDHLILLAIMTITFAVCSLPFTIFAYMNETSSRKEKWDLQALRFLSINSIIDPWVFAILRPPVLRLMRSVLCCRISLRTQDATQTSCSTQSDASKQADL
T2 sequence (P43116 whole entry): as above
T1 sequence (P35408 whole entry): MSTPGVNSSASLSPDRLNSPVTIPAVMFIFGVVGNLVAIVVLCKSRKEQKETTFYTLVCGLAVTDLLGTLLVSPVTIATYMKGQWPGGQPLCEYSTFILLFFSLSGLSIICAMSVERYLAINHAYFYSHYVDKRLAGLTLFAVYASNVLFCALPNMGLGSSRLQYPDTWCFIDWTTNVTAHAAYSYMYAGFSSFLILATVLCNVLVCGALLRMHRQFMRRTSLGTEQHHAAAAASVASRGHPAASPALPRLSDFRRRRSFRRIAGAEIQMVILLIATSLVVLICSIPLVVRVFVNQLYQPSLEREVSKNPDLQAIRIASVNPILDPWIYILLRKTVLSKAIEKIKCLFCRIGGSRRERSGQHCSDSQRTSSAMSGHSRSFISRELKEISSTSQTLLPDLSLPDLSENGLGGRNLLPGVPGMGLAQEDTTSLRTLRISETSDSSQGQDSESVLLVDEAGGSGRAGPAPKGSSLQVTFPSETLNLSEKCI
T6 sequence (P35408 whole entry): as above

CCCCC[C@@H](O)c1ccc(N2C(=O)CC[C@@H]2/C=C/Cc2ccc(C(=O)O)s2)cc1 (racemic) [Example 16, 5-((E and Z)-3-{(R)-1-[4-(1-Hydroxy-hexyl)-phenyl]-5-oxo-pyrrolidin-2-yl}-allyl)-thiophene-2-carboxylic acid]
Ki (EP4 receptors): > 10 µM
Ki (EP2 [1]): 1.38 µM
EC50 (EP2 [2]): 0.015 µM
EC50 (hEP2/Gqs5): 0.226 µM

CCCCCC(O)c1ccc(N2C(=O)CC[C@@H]2COc2ccc(C(=O)O)cc2)cc1 (mixture of isomers) [Example 43, 4-{(R)-1-[4-(1-Hydroxy-hexyl)-phenyl]-5-oxo-pyrrolidin-2-ylmethoxy}-benzoic acid]
Ki (EP4 receptors): 8.75 µM
Ki (EP2 [1]): 22.7 µM
EC50 (hEP2/Gqs5): 7.28 µM

CCCCCC(O)c1ccc(N2C(=O)CC[C@@H]2COCc2cccc(C(=O)O)c2)cc1 (mixture of isomers) [Example 11, 3-{(R)-1-[4-(1-Hydroxy-hexyl)-phenyl]-5-oxo-pyrrolidin-2-ylmethoxymethyl}-benzoic acid]
Ki (EP4 receptors): > 10 µM
EC50 (EP2 [2]): 0.517 µM
EC50 (hEP2/Gqs5): > 10 µM

CCCCCC(O)c1ccc(N2C(=O)CC[C@@H]2CCCc2ccc(C(=O)O)s2)cc1 (mixture of isomers) [Example 17, 5-(3-{(S)-1-[4-(1-Hydroxy-hexyl)-phenyl]-5-oxo-pyrrolidin-2-yl}-propyl)-thiophene-2-carboxylic acid]
EC50 (hDP/Gqs5): 1230 nM
Ki (EP4 receptors): > 10 µM
Ki (EP2 [1]): 0.023 µM
EC50 (hEP3A/Gqi5): 155 nM
EC50 (EP2 [2]): 0.00055 µM
EC50 (hEP2/Gqs5): 0.005 µM

CCCCCCC(O)c1ccc(N2C(=O)CC[C@@H]2CCCc2ccc(C(=O)O)s2)cc1 (mixture of isomers) [Example 36, 5-(3-{(S)-1-[4-(1-Hydroxy-heptyl)-phenyl]-5-oxo-pyrrolidin-2-yl}-propyl)-thiophene-2-carboxylic acid]
EC50 (hDP/Gqs5): 105 nM
EC50 (hEP4/Gqs5): > 10 µM
EC50 (hEP3A/Gqi5): 47 nM
EC50 (hEP2/Gqs5): 0.03 µM

CCCC(O)c1ccc(N2C(=O)CC[C@@H]2COCc2ccc(C(=O)O)s2)cc1 (mixture of isomers) [Example 14, 5-{(R)-1-[4-(1-Hydroxy-butyl)-phenyl]-5-oxo-pyrrolidin-2-ylmethoxymethyl}-thiophene-2-carboxylic acid]
Ki (EP4 receptors): > 10 µM
Ki (EP2 [1]): 1.64 µM
EC50 (EP2 [2]): 0.027 µM
EC50 (hEP2/Gqs5): 0.426 µM

CCCCC(O)c1ccc(N2C(=O)CC[C@@H]2COCc2ccc(C(=O)O)s2)cc1 (mixture of isomers) [Example 12, 5-{(R)-1-[4-(1-Hydroxy-pentyl)-phenyl]-5-oxo-pyrrolidin-2-ylmethoxymethyl}-thiophene-2-carboxylic acid]
Ki (EP4 receptors): > 10 µM
Ki (EP2 [1]): 0.387 µM
EC50 (EP2 [2]): 0.008 µM
EC50 (hEP2/Gqs5): 0.212 µM

CCCCCCC(O)c1ccc(N2C(=O)CC[C@@H]2COCc2ccc(C(=O)O)s2)cc1 (mixture of isomers) [Example 13, 5-{(R)-1-[4-(1-Hydroxy-heptyl)-phenyl]-5-oxo-pyrrolidin-2-ylmethoxymethyl}-thiophene-2-carboxylic acid]
EC50 (hDP/Gqs5): 5760 nM
Ki (EP4 receptors): > 10 µM
Ki (EP2 [1]): 0.19 µM
EC50 (EP2 [2]): 0.0015 µM
EC50 (hEP2/Gqs5): 0.02 µM

CCC(O)c1ccc(N2C(=O)CC[C@@H]2COCc2ccc(C(=O)O)s2)cc1 (mixture of isomers) [Example 15, 5-{(R)-1-[4-(1-Hydroxy-propyl)-phenyl]-5-oxo-pyrrolidin-2-ylmethoxymethyl}-thiophene-2-carboxylic acid]
EC50 (hDP/Gqs5): 7560 nM
Ki (EP4 receptors): > 10 µM
EC50 (hEP4/Gqs5): > 10 µM
Ki (EP2 [1]): 5.73 µM
EC50 (EP2 [2]): 0.312 µM
EC50 (hEP2/Gqs5): 1.81 µM
